Measured values from BigSolDB 2.1.

COc1cc(Cc2cnc(N)nc2N)cc(OC)c1OC
Details	solubility (mole fraction)
in THF, 276.05 K	0.000608
in THF, 281.81 K	0.000714
in THF, 287.31 K	0.000857
in THF, 292.65 K	0.000987
in THF, 298.08 K	0.00117
in THF, 303.12 K	0.00137
in THF, 306.95 K	0.00155
in THF, 311.69 K	0.00178
in THF, 316.74 K	0.00208
in THF, 321.34 K	0.00244
in THF, 326.91 K	0.00296
in THF, 333.87 K	0.00377
in acetone, 276.94 K	0.000456
in acetone, 282.12 K	0.00054
in acetone, 288.62 K	0.000664
in acetone, 292.94 K	0.00076
in acetone, 297.96 K	0.00089
in acetone, 304.17 K	0.00108
in acetone, 309.34 K	0.00128
in acetone, 314.34 K	0.00149
in acetone, 319.07 K	0.00173
in acetone, 323.51 K	0.00199
in ethanol, 281.15 K	0.000356
in ethanol, 287.25 K	0.000461
in ethanol, 292.64 K	0.000545
in ethanol, 297.95 K	0.000681
in ethanol, 302.05 K	0.000833
in ethanol, 307.85 K	0.00105
in ethanol, 311.35 K	0.00124
in ethanol, 315.24 K	0.00151
in ethanol, 318.85 K	0.00177
in ethanol, 323.95 K	0.00223
in ethanol, 326.65 K	0.00255
in ethanol, 330.66 K	0.00309
in ethanol, 335.25 K	0.00388
in isopropanol, 277.17 K	0.000109
in isopropanol, 282.82 K	0.000156
in isopropanol, 288.28 K	0.000202
in isopropanol, 293.13 K	0.000255
in isopropanol, 297.57 K	0.000322
in isopropanol, 304.04 K	0.000468
in isopropanol, 309.36 K	0.000644
in isopropanol, 315.13 K	0.00091
in isopropanol, 319.53 K	0.00117
in isopropanol, 324.04 K	0.00151
in isopropanol, 328.37 K	0.0019
in isopropanol, 333.64 K	0.00247
in methanol, 277.02 K	0.000828
in methanol, 282.85 K	0.001
in methanol, 288.09 K	0.0012
in methanol, 293.03 K	0.00143
in methanol, 298.17 K	0.00173
in methanol, 304.24 K	0.00217
in methanol, 309.36 K	0.00265
in methanol, 314.12 K	0.0032
in methanol, 319.06 K	0.00392
in methanol, 323.53 K	0.00471
in methanol, 328.15 K	0.00571
in methanol, 333.73 K	0.0072
in n-butanol, 276.35 K	0.000157
in n-butanol, 282.63 K	0.000254
in n-butanol, 287.96 K	0.000359
in n-butanol, 292.84 K	0.000473
in n-butanol, 298.46 K	0.000635
in n-butanol, 303.72 K	0.000844
in n-butanol, 308.84 K	0.00106
in n-butanol, 313.36 K	0.00133
in n-butanol, 318.45 K	0.00175
in n-butanol, 323.73 K	0.00235
in n-butanol, 329.21 K	0.00306
in n-butanol, 333.73 K	0.00386
in n-propanol, 277.35 K	0.000278
in n-propanol, 283.63 K	0.000328
in n-propanol, 288.97 K	0.000414
in n-propanol, 294.05 K	0.000531
in n-propanol, 298.93 K	0.000677
in n-propanol, 303.84 K	0.000866
in n-propanol, 308.44 K	0.00109
in n-propanol, 314.54 K	0.00148
in n-propanol, 319.17 K	0.00186
in n-propanol, 323.48 K	0.00231
in n-propanol, 328.57 K	0.00298
in n-propanol, 334.15 K	0.00392
in sec-butanol, 276.85 K	0.000153
in sec-butanol, 283.66 K	0.000179
in sec-butanol, 290.08 K	0.0003
in sec-butanol, 294.67 K	0.000422
in sec-butanol, 298.45 K	0.000562
in sec-butanol, 303.74 K	0.000758
in sec-butanol, 308.84 K	0.00101
in sec-butanol, 313.35 K	0.00131
in sec-butanol, 318.46 K	0.00172
in sec-butanol, 323.56 K	0.00231
in sec-butanol, 328.66 K	0.0029
in sec-butanol, 333.74 K	0.00377
